This note sets out measurements from DBAASP.

For orientation: MIC means the smallest concentration in the dilution series that meets the test's criterion for growth inhibition. The low end stands for inhibition by little substance, the high end for a need for much substance.

Converted amounts (≈) assume the structure as drawn. “And” between values parts separate entries of the source, which are not always exact repeats. Equal entries are not always repeated.

Some test systems named below: Enterococcus faecalis A4; Staphylococcus aureus MR; Escherichia coli 987P; Escherichia coli UB1005; Escherichia coli 078; Escherichia coli K99; Escherichia coli K88; Escherichia coli BL21; Escherichia coli ESBL; Bacillus subtilis 168; Staphylococcus aureus.
Common to all, as to assay: ≥ marks a high value that may be exact or a test limit, other limits are often not marked, values filed in µg/mL are converted to µM
Assay [1] concerns Bacillus licheniformis ATCC 14580.
The test system of assay [2] is Bacillus subtilis ATCC 6051.
Assay [3] relates to Enterococcus faecium 4W-9.
In assay [4] the test system is Staphylococcus aureus ATCC 29213.
In assay [5] the test system is Enterococcus faecalis 1F-1.
The test system of assay [6] is Enterococcus faecium 5F-10.
Assay [7] deals with Staphylococcus aureus 215.
Assay [8] deals with Salmonella enterica ATCC H9812.
In assay [9] the test system is Escherichia coli ATCC 25922.
Assay [10] has as its system Bacillus amyloliquefaciens ATCC 23842.
Assay [11] has as its system Pseudomonas aeruginosa PAO1.
In assay [12] the test system is Bacillus cereus ATCC 14579.
The test system of assay [13] is Proteus mirabilis ATCC 35659.
The subject of assay [14] is Pseudomonas aeruginosa ATCC 27853.
The subject of assay [15] is Klebsiella pneumoniae ATCC 13883.
The test system of assay [16] is Bacillus subtilis ATCC 6633.
For assay [17], the system named is Enterococcus faecalis ATCC 19433.
The test system of assay [18] is Salmonella enterica subsp. enterica serovar Typhimurium LT2.
The test system of assay [19] is Enterococcus faecium ATCC 19434.
Assay [20] has as its system Proteus mirabilis CCUG 26767.
Assay [21] concerns Staphylococcus aureus ATCC 25923.
Assay [22] deals with Candida parapsilosis CGMCC 2.3989.
The subject of assay [23] is Salmonella enterica subsp. enterica serovar Typhimurium ATCC 14028.
For assay [24], the system named is Lacticaseibacillus rhamnosus 7469.
In assay [25] the test system is Salmonella enterica subsp. enterica serovar Typhimurium C77-31.
In assay [26] the test system is Staphylococcus epidermidis ATCC 12228.
Assay [27] concerns Lactiplantibacillus plantarum 8014.
In assay [28] the test system is Candida albicans CGMCC 2.2086.
The subject of assay [29] is Candida tropicalis CGMCC 2.1975.
The subject of assay [30] is Acinetobacter baumannii KCTC 2508.
Assay [31] relates to Bacillus subtilis KCTC 2217.
Assay [32] concerns Staphylococcus aureus ATCC 8325-4.
Assay [33] has as its system Streptococcus sanguinis ATCC 10556.
Assay [34] deals with Staphylococcus aureus ATCC 6538.
The test system of assay [35] is Candida albicans ATCC 5314.
In assay [36] the test system is Streptococcus mutans ATCC UA159.

Take `CC(=O)N[C@@H](CCC(=O)O)C(=O)N[C@@H](CC(C)C)C(=O)N[C@@H](CC(C)C)C(=O)N[C@@H](CO)C(=O)N[C@@H](CCCN=C(N)N)C(=O)N[C@H](C(=O)N[C@@H](CC(N)=O)C(=O)O)C(C)C` [ELLSRVN]: the MIC in [1] is not below 154 µM; in [2] it was not below 154 µM; in [3] it was not below 154 µM; in assay [4], 38.6 µM (≈ 33.6 µg/mL); in assay [5], not below 154 µM; with Enterococcus faecalis A4 it was not below 154 µM. Moreover, the MIC in assay [6] was not below 154 µM; in assay [7], not below 38.6 µM; in the assay on Staphylococcus aureus MR it was not below 38.6 µM; in [8], not below 154 µM; in assay [9], 77.1 µM (≈ 67.2 µg/mL); in assay [10], not below 154 µM. In addition, the MIC in assay [11] is 154 µM (≈ 134 µg/mL); in assay [12], not below 154 µM; in [13], not below 154 µM.
With `CC[C@H](C)[C@H](NC(=O)[C@H](CCCCN)NC(=O)[C@@H]1CCCN1C(=O)[C@H](CC(C)C)NC(=O)[C@@H](N)Cc1ccccc1)C(=O)N[C@@H](CC(C)C)C(=O)N[C@@H](CCCN=C(N)N)C(=O)N[C@@H](CCCCN)C(=O)N[C@H](C(=O)N[C@H](C(=O)N[C@@H](CCCN=C(N)N)C(=O)N[C@@H](C)C(=O)N[C@@H](CC(C)C)C(N)=O)C(C)C)[C@@H](C)CC` [FLPKILRKIVRAL], the MIC in assay [14] is more than 383 µM; in assay [15], not below 47.9 µM; in assay [16] it was not below 47.9 µM; in [4] it was 191 µM (≈ 300 µg/mL); in [17] it was 23.9 µM (≈ 37.5 µg/mL); in assay [18], not below 47.9 µM. Further, the figures for the MIC in assay [19], in assay [9] and in [20] were 23.9 µM (≈ 37.5 µg/mL), 23.9 µM (≈ 37.5 µg/mL) and not below 383 µM, respectively.
Turning to `CC[C@H](C)[C@H](N)C(=O)N[C@@H](Cc1cnc[nH]1)C(=O)N[C@@H](Cc1cnc[nH]1)C(=O)N[C@H](C(=O)N[C@@H](Cc1cnc[nH]1)C(=O)N[C@@H](Cc1cnc[nH]1)C(=O)N[C@H](C(N)=O)[C@@H](C)CC)[C@@H](C)CC` [IHHIHHI], the MIC is more than 64 µM in assay [21]; not below 64 µM in assay [22]; more than 64 µM in assay [23]; more than 64 µM in [14]; not below 64 µM against Escherichia coli 987P; not below 64 µM in assay [24]. Besides, the MIC in [4] was more than 64 µM; in assay [25], not below 64 µM; in [26], more than 64 µM; against Escherichia coli UB1005 it was not below 64 µM; in assay [27], not below 64 µM; in the assay on Escherichia coli 078, not below 64 µM. In addition, the MIC in assay [28] is not below 64 µM; in assay [29], not below 64 µM; in the assay on Escherichia coli K99, not below 64 µM; in the assay with Escherichia coli K88, not below 64 µM; in [9], more than 64 µM; in assay [11] it was more than 64 µM.
`CC[C@H](C)[C@H](N)C(=O)N[C@H](C(=O)N[C@@H](CCCCN)C(=O)N[C@@H](CCCCN)C(=O)N[C@H](C(=O)N[C@H](C(=O)N[C@@H](CCCCN)C(=O)N[C@@H](CCCCN)C(=O)N[C@H](C(=O)N[C@H](C(=O)N[C@@H](CCCCN)C(=O)N[C@@H](CCCCN)C(=O)N[C@H](C(N)=O)[C@@H](C)CC)[C@@H](C)CC)[C@@H](C)CC)[C@@H](C)CC)[C@@H](C)CC)[C@@H](C)CC` [IIKKIIKKIIKKI]: the minimum inhibitory concentration (MIC) with Escherichia coli BL21 was 2.5 µM (≈ 3.95 µg/mL); with Escherichia coli ESBL, 12 µM (≈ 18.9 µg/mL); in the assay on Bacillus subtilis 168, 5 µM (≈ 7.89 µg/mL); against Staphylococcus aureus it was 7.5 µM (≈ 11.8 µg/mL).
Consider `CC(C)C[C@H](NC(=O)[C@H](CC(C)C)NC(=O)[C@H](CCCCN)NC(=O)[C@H](CCCCN)NC(=O)[C@H](CC(C)C)NC(=O)[C@H](CC(C)C)NC(=O)[C@@H]1CCCN1C(=O)[C@H](CCCCN)NC(=O)[C@H](CCCCN)NC(=O)[C@H](CC(C)C)NC(=O)[C@H](CC(C)C)NC(=O)[C@H](CCCCN)NC(=O)[C@H](CCCCN)NC(=O)[C@H](Cc1c[nH]c2ccccc12)NC(=O)[C@@H](N)CCCCN)C(=O)N[C@@H](CCCCN)C(N)=O` [KWKKLLKKPLLKKLLK], for which the MIC in assay [21] is 1.56 µM and > 0.78 µM; in assay [30], 3.13 µM (≈ 6.27 µg/mL); in assay [31], 1.56 µM (≈ 3.13 µg/mL).
Turning to `CC[C@H](C)[C@H](NC(=O)[C@H](CCCCN)NC(=O)[C@H](CCCN=C(N)N)NC(=O)[C@H](CCC(=O)O)NC(=O)[C@H](Cc1ccc(O)cc1)NC(=O)[C@@H](N)CO)C(=O)N[C@@H](CC(N)=O)C(=O)N[C@@H](CCCN=C(N)N)C(=O)N[C@@H](Cc1cnc[nH]1)C(=O)N[C@@H](Cc1ccccc1)C(=O)N[C@@H](CCCCN)C(=O)N[C@H](C(=O)N[C@@H](CC(C)C)C(=O)N[C@@H](CCCCN)C(=O)N[C@@H](CCCCN)C(=O)N[C@@H](CC(N)=O)C(=O)N[C@@H](CC(C)C)C(=O)N[C@@H](CCCCN)C(=O)N[C@@H](CCCCN)C(=O)N[C@@H](CCCCN)C(N)=O)[C@@H](C)O` [SYERKINRHFKTLKKNLKKK], the MIC in [21] turned out to be 12.5 µM (≈ 32 µg/mL); in assay [32] it was 6.25 µM (≈ 16 µg/mL); in assay [4], 12.5 µM (≈ 32 µg/mL); in [33] it was 25 µM (≈ 64 µg/mL); in [34], 12.5 µM (≈ 32 µg/mL); in the assay with Staphylococcus aureus MR it was 12.5 µM (≈ 32 µg/mL). Further, the MIC in the assay on Staphylococcus aureus was 6.25 µM (≈ 16 µg/mL); in assay [35], 25 µM (≈ 64 µg/mL); in assay [36], 25 µM (≈ 64 µg/mL).
